Experimental data published in US20250313560A1, “Novel bicyclic benzylamido pyridine derivatives as SOS1 inhibitors” (Boehringer Ingelheim International GmbH, priority 2024, published 2025).
pIC50: −log10 of the molar value. Where two headings read alike, the source gives them in different places.

Tests used:
[1] = molecular target: P450 3A4 (Homo sapiens (Human), UniProt P08684); assay: Cytochrome P450 isoenzyme inhibition assay (P450 3A4, midazolam); format: in vitro ADME; settings: human liver microsomes, Midazolam as substrate; read-out: CYP3A4 inhibition IC50
Sequence of P450 3A4 (P08684 whole entry): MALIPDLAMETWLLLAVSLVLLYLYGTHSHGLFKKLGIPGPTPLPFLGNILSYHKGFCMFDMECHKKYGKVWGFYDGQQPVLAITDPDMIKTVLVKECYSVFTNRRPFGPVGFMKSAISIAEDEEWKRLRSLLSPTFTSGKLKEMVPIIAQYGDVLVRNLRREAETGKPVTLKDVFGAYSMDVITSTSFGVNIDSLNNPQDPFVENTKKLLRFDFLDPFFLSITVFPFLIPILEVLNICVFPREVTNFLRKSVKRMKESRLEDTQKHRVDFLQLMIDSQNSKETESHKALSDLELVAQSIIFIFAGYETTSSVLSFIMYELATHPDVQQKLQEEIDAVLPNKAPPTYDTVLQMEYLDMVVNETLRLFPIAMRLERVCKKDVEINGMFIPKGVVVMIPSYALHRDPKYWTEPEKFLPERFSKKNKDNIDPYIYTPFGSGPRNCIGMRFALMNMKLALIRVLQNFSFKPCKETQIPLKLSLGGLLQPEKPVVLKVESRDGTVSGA
In short: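 Midazolam (5 μM) hydroxylation by human liver microsomes (0.1 mg/ml) in 0.1 M TRIS with 5 mM MgCl2, started with 1 mM NADPH. Five compound concentrations in duplicate, e.g. top 50 μM with 1:4 dilutions. Metabolite quantified by LC-MS/MS against internal standard; IC50 from inhibition relative to no-compound control.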

[2] = test system: human hepatocytes; assay: Metabolic stability in human hepatocytes; settings: 1 μM test compound, 50% human serum, percentage of liver blood flow
Experimental: The metabolic degradation of a test compound is performed with hepatocytes in suspension. After recovery from cryopreservation, human hepatocytes are diluted in Dulbecco's modified eagle medium (supplemented with 3.5 μg glucagon/500 mL, 2.5 mg insulin/500 mL, 3.75 mg hydrocortisone/500 mL, 50% human serum) to obtain a final cell density of 1.0×10^6 cells/mL. Following a preincubation in a cell culture incubator (37° C., 10% CO2), test compound dissolved in DMSO is mixed with the hepatocyte suspension, resulting in a final test compound concentration of 1 μM and a final DMSO concentration of 0.05%.
The cell suspension is incubated at 37° C. (cell culture incubator, horizontal shaker) and samples are removed from the incubation after 0, 0.5, 1, 2, 4 and 6 hours. Samples are quenched with acetonitrile (containing internal standard) and pelleted by centrifugation. The supernatant is transferred to a deep-well plate and prepared for analysis of decline of parent compound by HPLC-MS/MS.
The percentage of remaining test compound is calculated using the peak area ratio (test compound/internal standard) of each incubation time point relative to the time point 0 peak area ratio. The log-transformed data are plotted versus incubation time, and the absolute value of the slope obtained by linear regression analysis is used to estimate in vitro half-life (T1/2).
CL_[sequence]_IN VIVO[mL/min/kg]=(CL_[sequence][μL/min/10^6cells]×hepatocellularity[10^6cells/g liver]×liver factor[g/kg body weight])/1000
Hepatic in vivo blood clearance (CL) is predicted according to the well-stirred liver model considering an average liver blood flow (QH) of 20.7 mL/min/kg:
CL[mL/min/kg]=CL_[sequence]_IN VIVO[mL/min/kg]×hepatic blood flow[mL/min/kg]/(CL_[sequence]_IN VIVO[mL/min/kg]+hepatic blood flow[mL/min/kg])
Results are expressed as percentage of hepatic blood flow:
QH[%]=CL[mL/min/kg]/hepatic blood flow[mL/min/kg])

[3] = molecular target: SOS1 and KRAS G12D (Homo sapiens (Human), UniProt Q07889); assay: KRAS::SOS1 AlphaScreen binding assay (KRAS G12D); settings: average of at least two measurements
Sequence of SOS1 and KRAS G12D (Q07889 564-1049, stated change not applied): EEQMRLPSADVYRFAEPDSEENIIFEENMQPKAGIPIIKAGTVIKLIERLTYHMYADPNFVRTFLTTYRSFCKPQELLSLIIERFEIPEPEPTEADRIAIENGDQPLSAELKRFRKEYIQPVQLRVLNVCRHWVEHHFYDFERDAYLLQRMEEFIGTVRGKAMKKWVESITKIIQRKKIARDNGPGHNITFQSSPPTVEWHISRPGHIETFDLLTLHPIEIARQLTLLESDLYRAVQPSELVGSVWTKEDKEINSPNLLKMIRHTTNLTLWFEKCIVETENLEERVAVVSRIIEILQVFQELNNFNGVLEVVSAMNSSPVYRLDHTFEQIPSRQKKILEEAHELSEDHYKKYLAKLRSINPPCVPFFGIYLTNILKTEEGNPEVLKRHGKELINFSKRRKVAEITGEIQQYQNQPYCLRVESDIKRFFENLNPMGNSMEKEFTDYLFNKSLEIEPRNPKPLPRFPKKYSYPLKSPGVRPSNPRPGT

[4] = molecular target: SOS1 and KRAS G12C (Homo sapiens (Human), UniProt Q07889); assay: KRAS::SOS1 AlphaScreen binding assay (KRAS G12C); settings: average of at least two measurements
Sequence of SOS1 and KRAS G12C (Q07889 564-1049, stated change not applied): as above

[5] = molecular target: CYP3A4 (Homo sapiens (Human), UniProt P08684); assay: Mechanism-based inhibition of CYP3A4 assay (MBI 3A4); format: in vitro ADME; settings: human liver microsomes, midazolam substrate, hydroxy-midazolam formation after 30 min preincubation relative to 0 min; for inhibition at 30 min: human, probe midazolam 15 μM (hydroxy-midazolam formation), read-out: MBI inhibition % ctrl. [%] with MDZ
Sequence of CYP3A4 (P08684 whole entry): as the sequence (P08684 whole entry) above
Experimental: Mechanism-Based Inhibition of CYP3A4 assay (MBI 3A4): The mechanism-based inhibition towards CYP3A4 is assayed in human liver microsomes with midazolam as substrate. The test compounds and water control (wells w/o test compound) are preincubated in presence of NADPH (1 mM) with human liver microsomes (0.2 mg/mL) at a concentration of 0, 5 and 25 μM for 0, 10 and 30 min. After preincubation, the incubate is diluted 1:10 (to 0.02 mg/mL) and the substrate midazolam (15 μM) is added for the main incubation (10 min). The main incubation is quenched with ACN and the formation of hydroxy-midazolam is quantified via LC/MS-MS. The formation of hydroxy-midazolam from the 30 min preincubation relative to the formation from the 0 min preincubation is used as a readout. Values of less than 100% mean that the substrate midazolam is metabolized to a lower extent upon 30 min preincubation compared to 0 min preincubation. In general, low effects upon 30 min preincubation are desired (corresponding to values close to 100%/not different to the values determined with water control).
Table 5: Mechanism-based inhibition of P450 isoenzyme 3A4 with midazolam as substrate.

[6] = test system: ERK phosphorylation in NCI-H358 SOS2 KO cells (KRAS G12C); assay: Erk phosphorylation assay; format: cell-based, human; settings: EGF stimulated, average of at least two measurements, read-out: pERK IC50
In short: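 NCI-H358 SOS2 KO cells (KRAS G12C) in DMEM/2% FBS were pretreated 50 min with compound, then stimulated with EGF (approx. 8 ng/mL) for 10-15 min. pERK1/2 (Thr202/Tyr204) measured in lysates by AlphaLISA SureFire; IC50 from variable-slope fit, averaged over at least two measurements.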

[7] = Homo sapiens, NCI-H358, NCI-H358 SOS2 KO cells

Structure (SMILES) | pIC50 [1] | Hepatic clearance - QH[%] in human hepatocytes [2] | IC50 [3] | IC50 [4] | inhibition at 30 min [5] | pIC50 [6, 7] | MBI inhibition % ctrl. [%] with MDZ [5] | pIC50 ([6]; NCI-H358 SOS2 KO cells)
C[C@@H](NC(=O)c1cc(N2CCC(N3CCC[C@@H]3CO)CC2)c2ncnn2c1)c1cccc(C(F)F)c1F [Example E1] | < 4.30 | 17% | 30 nM | 33 nM | 98% | 6.93 |  | 
C[C@@H](NC(=O)c1cc(N2CCC(N3CC[C@@H](O)C3)CC2)c2ncnn2c1)c1cccc(C(F)F)c1F [Example E2] | < 4.30 | 15% | 46 nM | 55 nM | 95% | 7.04 |  | 
C[C@@H](NC(=O)c1cc(N2CCC(N3C[C@H](O)C4(CC4)C3)CC2)c2ncnn2c1)c1cccc(C(F)F)c1F [Example E3] | < 4.30 | 24% | 50 nM | 59 nM | 94% | 6.81 |  | 
C[C@@H](NC(=O)c1cc(N2CCC(N3CC[C@](C)(O)C3)CC2)c2ncnn2c1)c1cccc(C(F)F)c1F [Example E4] | < 4.30 | 20% | 70 nM | 82 nM | 99% | 6.47 |  | 
C[C@@H](NC(=O)c1cc(N2CCC(N3CC[C@@](C)(O)C3)CC2)c2ncnn2c1)c1cccc(C(F)F)c1F [Example E5] | < 4.30 | 16% | 57 nM | 65 nM | 103% | 6.49 |  | 
C[C@@H](NC(=O)c1cc(N2CCC(N3CCC[C@H]3CO)CC2)c2ncnn2c1)c1cccc(C(F)F)c1F [Example E6] | < 4.30 | 16% | 37 nM | 36 nM | 102% | 6.61 |  | 
C[C@@H](NC(=O)c1cc(N2CCC(N(C)CC(C)(C)O)CC2)c2ncnn2c1)c1cccc(C(F)F)c1F [Example E7] | < 4.30 | 31% | 43 nM | 50 nM | 106% | 6.61 |  | 
C[C@@H](NC(=O)c1cc(N2CCC(N3CCC4(CC4)C3)CC2)c2ncnn2c1)c1cccc(C(F)F)c1F [Example E8] | < 4.30 | 18% | 69 nM | 70 nM | 97% | 6.73 |  | 
CO[C@H]1CCN(C2CCN(c3cc(C(=O)N[C@H](C)c4cccc(C(F)F)c4F)cn4ncnc34)CC2)C1 [Example E10] | < 4.30 | 29% | 67 nM | 74 nM | 97% | 6.67 |  | 
C[C@@H](NC(=O)c1cc(N2CCC(N3C[C@@H](O)C[C@@H]3C)CC2)c2ncnn2c1)c1cccc(C(F)F)c1F [Example E12] | < 4.30 | 12% | 24 nM | 30 nM | 79% | 6.96 |  | 
C[C@@H](NC(=O)c1cc(N2CCC(N3CCC[C@H](O)C3)CC2)c2ncnn2c1)c1cccc(C(F)F)c1F [Example E18] | < 4.30 | 17% | 37 nM | 49 nM | 99% | 7.27 |  | 
C[C@@H](NC(=O)c1cc(N2CCC3(CCCCN3)CC2)c2ncnn2c1)c1cccc(C(F)F)c1F [Example E19] | < 4.30 | 19% | 27 nM | 32 nM | 102% | 6.65 |  | 
C[C@@H](NC(=O)c1cc(N2CCC3(CCCN3C)CC2)c2ncnn2c1)c1cccc(C(F)F)c1F [Example E20] | < 4.30 | 19% | 33 nM | 44 nM | 94% | 6.84 |  | 
C[C@@H](NC(=O)c1cc(N2CCC(N3CCC[C@@H](O)C3)CC2)c2ncnn2c1)c1cccc(C(F)F)c1F [Example E22] | < 4.30 | 19% | 49 nM | 48 nM | 100% | 6.73 |  | 
C[C@@H]1C[C@H](O)CN1C1CCN(c2cc(C(=O)N[C@H](C)c3cccc(C(F)(F)F)c3F)cn3ncnc23)CC1 [Example E24] | < 4.30 | 22% | 46 nM | 56 nM |  |  | 99% | 6.49
C[C@@H]1[C@H](O)CN1C1CCN(c2cc(C(=O)N[C@H](C)c3cccc(C(F)(F)F)c3F)cn3ncnc23)CC1 [Example E25] | < 4.30 | 17% | 53 nM | 63 nM | 91% | 6.55 |  | 
C[C@@H](NC(=O)c1cc(N2CCC(N3CC[C@H](CO)C3)CC2)c2ncnn2c1)c1cccc(C(F)(F)F)c1F [Example E26] | < 4.30 | 8% | 78 nM | 86 nM | 92% | 6.83 |  | 
C[C@@H](NC(=O)c1cc(N2CCC(N3CC[C@@H](CO)C3)CC2)c2ncnn2c1)c1cccc(C(F)(F)F)c1F [Example E27] | < 4.30 | 9% | 73 nM | 77 nM | 90% | 7.14 |  | 
C[C@@H](NC(=O)c1cc(N2CCC(N3C[C@H](O)C4(CC4)C3)CC2)c2ncnn2c1)c1cccc(C(F)(F)F)c1F [Example E28] | < 4.30 | 23% | 70 nM | 70 nM | 90% | 6.73 |  | 
C[C@@H](NC(=O)c1cc(N2CCC(N3C[C@@H](O)C4(CC4)C3)CC2)c2ncnn2c1)c1cccc(C(F)(F)F)c1F [Example E30] | < 4.30 | 18% | 51 nM | 59 nM | 103% | 6.53 |  | 
